Data on 18 compounds can be found in US9790221B2, “Heteroaryl compounds as IRAK inhibitors and uses thereof” (Merck Patent GmbH, priority 2014, dated 2017).

Each structure is given as a SMILES string.

Experiment [1] has as its target IRAK1 (His-TEV-IRAK1 (194-712)) (Homo sapiens (Human), UniProt P51617). The experiment can be described thus: IRAK1 enzymatic assay. It is filed as biochemical. Put shortly:
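Compounds ([…] down to 1 nM) were incubated 3 h at 30° C with His-TEV-IRAK1 (194-712, 15 ng/well) and 1 μM [33P]-labelled ATP in 50 mM Hepes pH 7.0, 10 mM MgCl2. After EDTA stop and washing, the retained autophosphorylation signal was measured by scintillation in streptavidin-coated plates.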

The next experiment concerns the target IRAK4 (Homo sapiens (Human), UniProt Q9NWZ3). Kind of experiment: IRAK4 enzymatic assay. It is filed as biochemical. An outline of the steps:
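Radiometric streptavidin FlashPlate read: 3 h, 30° C incubation of His-TEV-IRAK4 (20 ng/well), STK1-biotin substrate (300 nM) and ATP (2 μM, [^33P]-labelled) in Hepes pH 7.0, MgCl2 10 mM, MnCl2 5 mM. Compounds from 20 µM down to 1 nM, 2% DMSO controls; reaction quenched with EDTA.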

Experiment [2] relates to TLR7 induced IL-6 secretion in human mononuclear cells (PBMC's). The experiment can be described thus: TLR7 induced IL-6 in human PBMC's. To be noted: Homo sapiens, PBMC, read-out: TLR7 induced IL-6 secretion in hPBMC's (IC50). It is filed as cell-based. Put shortly: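 Fresh or frozen healthy-donor PBMCs preincubated 30 min at 37° C. with compound (25 uM to 0.4 nM; vehicle 0.25% DMSO) in RPMI/10% HI-FBS. Stimulated with TLR7 ligand (2 uM) for 16-18 h at 37° C.; supernatant IL-6 measured by AlphaLISA.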

Chain of IRAK1 (His-TEV-IRAK1 (194-712)) (P51617 194-712): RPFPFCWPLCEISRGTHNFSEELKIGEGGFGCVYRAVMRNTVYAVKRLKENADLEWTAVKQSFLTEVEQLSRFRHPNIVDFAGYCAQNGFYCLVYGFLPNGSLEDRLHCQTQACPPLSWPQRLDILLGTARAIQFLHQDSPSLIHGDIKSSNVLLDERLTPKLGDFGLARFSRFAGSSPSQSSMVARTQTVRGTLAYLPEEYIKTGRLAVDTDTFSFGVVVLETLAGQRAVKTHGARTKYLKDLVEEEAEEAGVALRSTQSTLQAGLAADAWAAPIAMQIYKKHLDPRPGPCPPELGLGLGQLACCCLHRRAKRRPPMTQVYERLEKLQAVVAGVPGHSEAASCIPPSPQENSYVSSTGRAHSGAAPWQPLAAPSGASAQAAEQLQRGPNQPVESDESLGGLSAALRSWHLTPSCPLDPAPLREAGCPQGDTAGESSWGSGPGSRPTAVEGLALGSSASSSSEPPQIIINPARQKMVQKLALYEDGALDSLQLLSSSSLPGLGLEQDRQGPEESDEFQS
Chain of IRAK4 (Q9NWZ3 whole entry): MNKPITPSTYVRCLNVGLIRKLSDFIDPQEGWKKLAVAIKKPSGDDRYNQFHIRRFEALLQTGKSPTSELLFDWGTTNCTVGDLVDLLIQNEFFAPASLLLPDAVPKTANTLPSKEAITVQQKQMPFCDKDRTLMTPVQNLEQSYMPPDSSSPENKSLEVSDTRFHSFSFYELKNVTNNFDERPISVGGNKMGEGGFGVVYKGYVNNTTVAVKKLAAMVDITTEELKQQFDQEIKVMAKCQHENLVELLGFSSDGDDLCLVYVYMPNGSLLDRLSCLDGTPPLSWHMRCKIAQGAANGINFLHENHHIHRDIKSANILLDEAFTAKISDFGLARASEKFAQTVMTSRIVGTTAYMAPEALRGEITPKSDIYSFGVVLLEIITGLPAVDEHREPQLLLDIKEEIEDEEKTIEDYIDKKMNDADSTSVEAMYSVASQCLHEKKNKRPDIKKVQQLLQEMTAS

The IC50 is the concentration that inhibits the measured activity by half. In the case of `Cn1cc(-c2cccc(-c3ncc(-c4cnn(C)c4)c(N4CCC(N)CC4)n3)c2)cn1` [Example 239], the IC50 (in experiment [1]; against IRAK4; in experiment [2]) was 100 to 1000 nM in each case.
On to `Cn1cc(-c2cccc(-c3ncc(-c4cnn(C)c4)c(NC45CC(CN)(C4)C5)n3)c2)cn1` [Example 242], for which the figures for the IC50 (in experiment [1]; at IRAK4; in experiment [2]) were 100 to 1000 nM, < 100 nM and 100 to 1000 nM, respectively.
`Cc1nnc(-c2cnc(-c3cccc(-c4cnn(C)c4)c3)nc2NC2CCS(=O)(=O)CC2)s1` [Example 243]: the IC50 was 1000 to 5000 nM in experiment [1], < 100 nM on IRAK4 and 100 to 1000 nM in experiment [2].
`Cn1cc(-c2cccc(-c3ncc(-c4cnn(C)c4)c(NC4CCCCC4O)n3)c2)cn1` (stereo not drawn) [Example 244]: the IC50 in experiment [1] was 100 to 1000 nM; at IRAK4, < 100 nM; in experiment [2], 100 to 1000 nM.
Regarding `Cn1cc(-c2cccc(-c3ncc(-c4cnn(C)c4)c(NC45CC(CNS(C)(=O)=O)(C4)C5)n3)c2)cn1` [Example 245], the IC50 in experiment [1] is < 100 nM; on IRAK4 it was < 100 nM; in experiment [2], 100 to 1000 nM.
On to `Cc1nnc(-c2cnc(-c3cccc(-c4cnn(C)c4)c3)nc2NC2CCCN(S(C)(=O)=O)CC2)s1` (stereo not drawn) [Example 253], for which the IC50 in experiment [1] was < 100 nM; against IRAK4 it was < 100 nM; in experiment [2], 100 to 1000 nM.
Regarding `Cc1nnc(-c2cnc(-c3cccc(-c4cnn(C)c4)c3)nc2N[C@H]2CC[C@H](NS(C)(=O)=O)CC2)s1` [Example 254], the IC50 (in experiment [1]; on IRAK4; in experiment [2]) was < 100 nM in each case.
Turning to `CC(=O)NC1(CNc2nc(-c3cccc(-c4cnn(C)c4)c3)ncc2-c2cnn(C)c2)CCCCC1` [Example 256], the results for the IC50 (in experiment [1]; against IRAK4; in experiment [2]) were 1000 to 5000 nM, < 100 nM and 1000 to 5000 nM, respectively.
Consider `Cn1cc(-c2cccc(-c3ncc(-c4cnn(C)c4)c(NC4CCS(=O)(=O)CC4)n3)c2)cn1` [Example 257], for which the IC50 in experiment [1] is 100 to 1000 nM; against IRAK4, < 100 nM; in experiment [2], 1000 to 5000 nM.
`CC(C)Nc1nc(-c2cccc(-c3cnn(C)c3)c2)ncc1-c1cnn(C)c1` [Example 260]: the results for the 50% inhibitory concentration (IC50) (in experiment [1]; on IRAK4; in experiment [2]) were 100 to 1000 nM, 100 to 1000 nM and 1000 to 5000 nM, respectively.
Consider `Cn1cc(-c2cccc(-c3ncc(-c4cnn(C)c4)c(NCC4(NS(C)(=O)=O)CCCCC4)n3)c2)cn1` [Example 262], for which the IC50 in experiment [1] was 100 to 1000 nM; against IRAK4, < 100 nM; in experiment [2], 1000 to 5000 nM.
Turning to `Cn1cc(-c2cccc(-c3ncc(-c4cnn(C)c4)c(N4CCC(CNS(C)(=O)=O)C4)n3)c2)cn1` (stereo not drawn) [Example 265], the half-inhibitory concentration (IC50) was 100 to 1000 nM in experiment [1], < 100 nM on IRAK4 and > 5000 nM in experiment [2].
As to `CC(=O)NC12CC(Nc3nc(-c4cccc(-c5cnn(C)c5)c4)ncc3-c3cnn(C)c3)(C1)C2` [Example 266], the values for the IC50 (in experiment [1]; against IRAK4; in experiment [2]) were < 100 nM, < 100 nM and 100 to 1000 nM, respectively.
With `Cn1cc(-c2cccc(-c3ncc(-c4cnn(C)c4)c(NCCNS(C)(=O)=O)n3)c2)cn1` [Example 267], the IC50 was 100 to 1000 nM in experiment [1], < 100 nM on IRAK4 and 100 to 1000 nM in experiment [2].
For the compound `Cn1cc(-c2cccc(-c3ncc(-c4cnn(C)c4)c(N[C@H]4CCC[C@@H](O)[C@H]4O)n3)c2)cn1` [Example 268], the IC50 (in experiment [1]; on IRAK4; in experiment [2]) was < 100 nM in each case.
As to `Cn1cc(-c2cccc(-c3ncc(-c4cnn(C)c4)c(NC45CC(N)(C4)C5)n3)c2)cn1` [Example 269], the results for the IC50 (in experiment [1]; against IRAK4; in experiment [2]) were 100 to 1000 nM, < 100 nM and 100 to 1000 nM, respectively.
`Cn1cc(-c2cccc(-c3ncc(-c4cnn(C)c4)c(NC45CC(NS(C)(=O)=O)(C4)C5)n3)c2)cn1` [Example 270]: the half-maximal inhibitory concentration (IC50) (in experiment [1]; against IRAK4; in experiment [2]) was < 100 nM in each case.
In the case of `Cn1cc(-c2cccc(-c3ncc(-c4cnn(C)c4)c(NCC(F)(F)F)n3)c2)cn1` [Example 271], the values for the IC50 (in experiment [1]; at IRAK4; in experiment [2]) were 100 to 1000 nM, < 100 nM and 1000 to 5000 nM, respectively.
